Test results reported in publication PMC9477868, “Gut bacteria induce oviposition preference through ovipositor recognition in fruit fly” (Communications Biology, 2022).

What was measured:
Type in all cases: binding
Obp56d-2 [1] = target: T1, Obp56d-2 (Bactrocera dorsalis, UniProt A0ACM8RD04); test: fluorescence titration, microplate reader (ex […] nm); settings: 2 uM Obp, 2-16 uM 1-NPN, 50 mM Tris-HCl, pH 7.4; fluorescent probe; one-site fit
T1 construct: gene LOC105221865; recombinant, E. coli Rosetta (DE3), pET-32a(+) vector, designed from CDS; about 29 kDa on SDS-PAGE; anion-exchange purified
T1 sequence (A0ACM8RD04 19-138): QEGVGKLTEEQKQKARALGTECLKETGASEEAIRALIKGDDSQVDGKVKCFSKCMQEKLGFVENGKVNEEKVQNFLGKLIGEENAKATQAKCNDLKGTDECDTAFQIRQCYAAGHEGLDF

Obp56d [2] = target: T2, Obp56d (Bactrocera dorsalis, UniProt A0A6I9V3V6); test: as above; settings: 2 uM Obp, 2-16 uM 1-NPN, 50 mM Tris-HCl, pH 7.4; fluorescent probe; one-site fit
T2 construct: gene LOC105221864; recombinant, E. coli Rosetta (DE3), pET-32a(+) vector, designed from CDS; about 29 kDa on SDS-PAGE; anion-exchange purified
T2 sequence (A0A6I9V3V6 19-138): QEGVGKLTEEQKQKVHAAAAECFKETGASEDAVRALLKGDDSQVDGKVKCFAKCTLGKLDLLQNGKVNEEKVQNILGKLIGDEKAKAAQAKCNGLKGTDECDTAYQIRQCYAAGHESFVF

Obp56d [3] = target: T2, Obp56d; test: competitive displacement of 1-NPN fluorescence; settings: 3-HA 0-16 uM; 2 uM Obp, 50 mM Tris-HCl, pH 7.4; competitive with 1-NPN
Obp56d-2 [4] = target: T1, Obp56d-2; test: competitive displacement of 1-NPN fluorescence; settings: 3-HA 0-16 uM; 2 uM Obp, 50 mM Tris-HCl, pH 7.4; competitive with 1-NPN

% reduction of relative fluorescence intensity of the Obp/1-NPN complex (Obp56d [3]) [%]	% reduction of relative fluorescence intensity of the Obp/1-NPN complex (Obp56d-2 [4]) [%]	Structure (SMILES)	dissociation constant (Obp56d-2 [1])	dissociation constant (Obp56d [2])
–	–	c1ccc(Nc2cccc3ccccc23)cc1 [1-NPN]	Then the dissociation constants of the Obp56d and Obp56d-2 were generated	Then the dissociation constants of the Obp56d and Obp56d-2 were generated
> 50	> 50	CCC=CCCOC(C)=O [3-HA]	–	–
